Key:
Assay type in all cases: in vivo
[1] = test system: barnyardgrass (Echinochloa crus-galli); experiment: Test A pre-/postemergence plant response
Text: (§1) Seeds of species selected from barnyardgrass (Echinochloa crus-galli), large crabgrass (Digitaria sanguinalis), giant foxtail (Setaria faberi), blackgrass (Alopecurus myosuroides), canarygrass (Phalaris minor), morningglory (Ipomoea coccinea), pigweed (Amaranthus retroflexus), velvetleaf (Abutilon theophrasti), wheat (Triticum aestivum), and corn (Zea mays) were planted into a blend of loam soil and sand and treated preemergence with a directed soil spray using test chemicals formulated in a non-phytotoxic solvent mixture which included a surfactant. At the same time these species were also treated with postemergence applications of test chemicals formulated in the same manner.
(§2) Plants ranged in height from 2 to 10 cm and were in the one- to two-leaf stage for the postemergence treatment. Treated plants and untreated controls were maintained in a greenhouse for approximately 10 days, after which time all treated plants were compared to untreated controls and visually evaluated for injury. Plant response ratings, summarized in Table A, are based on a 0 to 100 scale where 0 is no effect and 100 is complete control. A dash (-) response means no test results.

corn (Zea mays) = experiment: Test A pre-/postemergence plant response
Text: as §1, §2

[2] = test system: giant foxtail (Setaria faberi); experiment: Test A pre-/postemergence plant response
Text: as §1, §2

[3] = test system: large crabgrass (Digitaria sanguinalis); experiment: Test A pre-/postemergence plant response
Text: as §1, §2

[4] = test system: morningglory (Ipomoea coccinea); experiment: Test A pre-/postemergence plant response
Text: as §1, §2

[5] = test system: pigweed (Amaranthus retroflexus); experiment: Test A pre-/postemergence plant response
Text: as §1, §2

[6] = test system: velvetleaf (Abutilon theophrasti); experiment: Test A pre-/postemergence plant response
Text: as §1, §2

[7] = test system: wheat (Triticum aestivum); experiment: Test A pre-/postemergence plant response
Text: as §1, §2

[8] = test system: barnyardgrass (Echinochloa crus-galli); experiment: Test B flooded paddy test plant response
Text: (§3) Plant species in the flooded paddy test consisted of rice (Oryza sativa), umbrella sedge (Cyperus difformis), ducksalad (Heteranthera limosa) and barnyardgrass (Echinochloa crus-galli) grown to the 2-leaf stage for testing. At time of treatment, test pots were flooded to 3 cm above the soil surface, treated by application of test compounds directly to the paddy water, and then maintained at that water depth for the duration of the test. Treated plants and controls were maintained in a greenhouse for 13 to 15 days, after which time all species were compared to controls and visually evaluated. Plant response ratings, summarized in Table B, are based on a scale of 0 to 100 where 0 is no effect and 100 is complete control. A dash (-) response means no test result.

[9] = test system: ducksalad (Heteranthera limosa); experiment: Test B flooded paddy test plant response
Text: as §3

rice (Oryza sativa) = experiment: Test B flooded paddy test plant response
Text: as §3

[10] = test system: umbrella sedge (Cyperus difformis); experiment: Test B flooded paddy test plant response
Text: as §3

[11] = Postemergence, 125 g ai/ha, 0 to 100 scale, 0 no effect, 100 complete control
[12] = Postemergence, 500 g ai/ha, 0 to 100 scale, 0 no effect, 100 complete control
[13] = Preemergence, 125 g ai/ha, 0 to 100 scale (0 no effect, 100 complete control)
[14] = Preemergence, 500 g ai/ha, 0 to 100 scale (0 no effect, 100 complete control)
[15] = Flood (flooded paddy test), 62 g ai/ha, scale 0 to 100, 0 no effect, 100 complete control
[16] = Flood (flooded paddy test), 250 g ai/ha, scale 0 to 100, 0 no effect, 100 complete control
[17] = Postemergence, 31 g ai/ha, 0 to 100 scale, 0 no effect, 100 complete control
[18] = Preemergence, 31 g ai/ha, 0 to 100 scale, 0 is no effect, 100 is complete control
[19] = Flood (flooded paddy test), 125 g ai/ha, scale 0 to 100, 0 no effect, 100 complete control
[20] = Flood, 31 g ai/ha, scale 0 to 100

Cc1cc(-n2cc(Cl)cn2)ccc1-c1c(O)cnn(C)c1=O [Compound 60]
30: Plant response rating, Barnyardgrass [1, 11] | Plant response rating, Barnyardgrass [8, 16] | Plant response rating, Rice (rice (Oryza sativa); [16])
50: Plant response rating, Corn (corn (Zea mays); [13]) | Plant response rating, Foxtail, Giant [2, 11] | Plant response rating, Wheat [7, 12] | Plant response rating, Wheat [7, 14]
100: Plant response rating, Barnyardgrass [1, 14] | Plant response rating, Foxtail, Giant [2, 14]
0: Plant response rating, Morningglory [4, 11] | Plant response rating, Morningglory [4, 12] | Plant response rating, Morningglory [4, 13] | Plant response rating, Morningglory [4, 14] | Plant response rating, Pigweed [5, 11] | Plant response rating, Pigweed [5, 12] | Plant response rating, Pigweed [5, 13] | Plant response rating, Pigweed [5, 14] | Plant response rating, Velvetleaf [6, 11] | Plant response rating, Velvetleaf [6, 12] | Plant response rating, Velvetleaf [6, 13] | Plant response rating, Velvetleaf [6, 14] | Plant response rating, Wheat [7, 11] | Plant response rating, Wheat [7, 13] | Plant response rating, Barnyardgrass [8, 15] | Plant response rating, Ducksalad [9, 15] | Plant response rating, Ducksalad [9, 16] | Plant response rating, Rice (rice (Oryza sativa); [15]) | Plant response rating, Sedge, Umbrella [10, 15] | Plant response rating, Sedge, Umbrella [10, 16]
60: Plant response rating, Crabgrass, Large [3, 12]
70: Plant response rating, Barnyardgrass [1, 13]
80: Plant response rating, Foxtail, Giant [2, 12] | Plant response rating, Foxtail, Giant [2, 13] | Plant response rating, Crabgrass, Large [3, 14]
90: Plant response rating, Barnyardgrass [1, 12] | Plant response rating, Corn (corn (Zea mays); [12]) | Plant response rating, Corn (corn (Zea mays); [14])
40: Plant response rating, Corn (corn (Zea mays); [11])
20: Plant response rating, Crabgrass, Large [3, 11] | Plant response rating, Crabgrass, Large [3, 13]

Cc1cc(-c2ccc(Cl)cc2)nn1-c1c(OS(=O)(=O)C2CC2)cnn(C)c1=O [Compound 49]
40: Plant response rating, Crabgrass, Large [3, 13]
20: Plant response rating, Foxtail, Giant [2, 11] | Plant response rating, Crabgrass, Large [3, 11]
0: Plant response rating, Barnyardgrass [1, 17] | Plant response rating, Barnyardgrass [1, 11] | Plant response rating, Barnyardgrass [1, 18] | Plant response rating, Barnyardgrass [1, 13] | Plant response rating, Corn (corn (Zea mays); [17]) | Plant response rating, Corn (corn (Zea mays); [11]) | Plant response rating, Corn (corn (Zea mays); [18]) | Plant response rating, Corn (corn (Zea mays); [13]) | Plant response rating, Foxtail, Giant [2, 17] | Plant response rating, Foxtail, Giant [2, 18] | Plant response rating, Crabgrass, Large [3, 17] | Plant response rating, Crabgrass, Large [3, 18] | Plant response rating, Morningglory [4, 17] | Plant response rating, Morningglory [4, 11] | Plant response rating, Morningglory [4, 18] | Plant response rating, Morningglory [4, 13] | Plant response rating, Pigweed [5, 17] | Plant response rating, Pigweed [5, 11] | Plant response rating, Pigweed [5, 18] | Plant response rating, Pigweed [5, 13] | Plant response rating, Velvetleaf [6, 17] | Plant response rating, Velvetleaf [6, 11] | Plant response rating, Velvetleaf [6, 18] | Plant response rating, Velvetleaf [6, 13] | Plant response rating, Wheat [7, 17] | Plant response rating, Wheat [7, 11] | Plant response rating, Wheat [7, 18] | Plant response rating, Wheat [7, 13] | Plant response rating, Barnyardgrass [8, 15] | Plant response rating, Barnyardgrass [8, 19] | Plant response rating, Barnyardgrass [8, 16] | Plant response rating, Barnyardgrass [8, 20] | Plant response rating, Ducksalad [9, 15] | Plant response rating, Ducksalad [9, 16] | Plant response rating, Ducksalad [9, 20] | Plant response rating, Rice (rice (Oryza sativa); [15]) | Plant response rating, Rice (rice (Oryza sativa); [19]) | Plant response rating, Rice (rice (Oryza sativa); [16]) | Plant response rating, Rice (rice (Oryza sativa); [20]) | Plant response rating, Sedge, Umbrella [10, 15] | Plant response rating, Sedge, Umbrella [10, 19] | Plant response rating, Sedge, Umbrella [10, 16] | Plant response rating, Sedge, Umbrella [10, 20]
80: Plant response rating, Foxtail, Giant [2, 13]

Cc1cc(-c2ccc(OC(F)(F)F)cc2)nn1-c1c(O)cnn(C)c1=O [Compound 14]
0: Plant response rating, Corn (corn (Zea mays); [13]) | Plant response rating, Morningglory [4, 11] | Plant response rating, Morningglory [4, 12] | Plant response rating, Morningglory [4, 13] | Plant response rating, Morningglory [4, 14] | Plant response rating, Pigweed [5, 11] | Plant response rating, Pigweed [5, 12] | Plant response rating, Pigweed [5, 13] | Plant response rating, Pigweed [5, 14] | Plant response rating, Velvetleaf [6, 11] | Plant response rating, Velvetleaf [6, 13] | Plant response rating, Barnyardgrass [8, 15] | Plant response rating, Barnyardgrass [8, 20] | Plant response rating, Ducksalad [9, 15] | Plant response rating, Ducksalad [9, 20] | Plant response rating, Rice (rice (Oryza sativa); [15]) | Plant response rating, Rice (rice (Oryza sativa); [19]) | Plant response rating, Rice (rice (Oryza sativa); [20]) | Plant response rating, Sedge, Umbrella [10, 20]
40: Plant response rating, Corn (corn (Zea mays); [11]) | Plant response rating, Wheat [7, 11] | Plant response rating, Ducksalad [9, 19] | Plant response rating, Ducksalad [9, 16]
70: Plant response rating, Barnyardgrass [1, 11] | Plant response rating, Barnyardgrass [1, 13] | Plant response rating, Crabgrass, Large [3, 13] | Plant response rating, Wheat [7, 12]
100: Plant response rating, Barnyardgrass [1, 12] | Plant response rating, Barnyardgrass [1, 14] | Plant response rating, Foxtail, Giant [2, 12] | Plant response rating, Foxtail, Giant [2, 14]
20: Plant response rating, Velvetleaf [6, 14] | Plant response rating, Barnyardgrass [8, 19] | Plant response rating, Barnyardgrass [8, 16] | Plant response rating, Rice (rice (Oryza sativa); [16])
60: Plant response rating, Corn (corn (Zea mays); [14]) | Plant response rating, Crabgrass, Large [3, 11] | Plant response rating, Sedge, Umbrella [10, 15] | Plant response rating, Sedge, Umbrella [10, 16]
90: Plant response rating, Crabgrass, Large [3, 12] | Plant response rating, Crabgrass, Large [3, 14]
10: Plant response rating, Wheat [7, 13]
80: Plant response rating, Corn (corn (Zea mays); [12]) | Plant response rating, Foxtail, Giant [2, 11] | Plant response rating, Foxtail, Giant [2, 13] | Plant response rating, Wheat [7, 14]
30: Plant response rating, Velvetleaf [6, 12]

Cc1cc(-c2ccc(Cl)cc2)nn1-c1c(OC(=O)N(C)C)cnn(C)c1=O [Compound 64]
50: Plant response rating, Foxtail, Giant [2, 13] | Plant response rating, Crabgrass, Large [3, 13]
40: Plant response rating, Crabgrass, Large [3, 11]
10: Plant response rating, Barnyardgrass [1, 11]
0: Plant response rating, Barnyardgrass [1, 17] | Plant response rating, Barnyardgrass [1, 18] | Plant response rating, Barnyardgrass [1, 13] | Plant response rating, Corn (corn (Zea mays); [17]) | Plant response rating, Corn (corn (Zea mays); [18]) | Plant response rating, Foxtail, Giant [2, 18] | Plant response rating, Crabgrass, Large [3, 17] | Plant response rating, Crabgrass, Large [3, 18] | Plant response rating, Morningglory [4, 17] | Plant response rating, Morningglory [4, 11] | Plant response rating, Morningglory [4, 18] | Plant response rating, Morningglory [4, 13] | Plant response rating, Pigweed [5, 17] | Plant response rating, Pigweed [5, 11] | Plant response rating, Pigweed [5, 18] | Plant response rating, Pigweed [5, 13] | Plant response rating, Velvetleaf [6, 17] | Plant response rating, Velvetleaf [6, 11] | Plant response rating, Velvetleaf [6, 18] | Plant response rating, Velvetleaf [6, 13] | Plant response rating, Wheat [7, 17] | Plant response rating, Wheat [7, 11] | Plant response rating, Wheat [7, 18] | Plant response rating, Wheat [7, 13] | Plant response rating, Barnyardgrass [8, 15] | Plant response rating, Barnyardgrass [8, 16] | Plant response rating, Ducksalad [9, 15] | Plant response rating, Ducksalad [9, 16] | Plant response rating, Rice (rice (Oryza sativa); [15]) | Plant response rating, Rice (rice (Oryza sativa); [16]) | Plant response rating, Sedge, Umbrella [10, 15] | Plant response rating, Sedge, Umbrella [10, 16]
80: Plant response rating, Foxtail, Giant [2, 11]
30: Plant response rating, Corn (corn (Zea mays); [13]) | Plant response rating, Foxtail, Giant [2, 17]
60: Plant response rating, Corn (corn (Zea mays); [11])
